Results: article PMC4961957, “Dose-Dependent Suppression of Cytokine production from T cells by a Novel Phosphoinositide 3-Kinase Delta Inhibitor” (Scientific Reports, 2016)

Molecular target: T1, PI3Kδ (p110δ) (Homo sapiens, UniProt O00329)
T1 construct: gene PIK3CD
Assay: FRET-based in vitro kinase assay; class I PI3K binding also seen in KinomeScan ATP-site competition panel ([…])
Assay type: biochemical

T1 sequence (O00329 whole entry): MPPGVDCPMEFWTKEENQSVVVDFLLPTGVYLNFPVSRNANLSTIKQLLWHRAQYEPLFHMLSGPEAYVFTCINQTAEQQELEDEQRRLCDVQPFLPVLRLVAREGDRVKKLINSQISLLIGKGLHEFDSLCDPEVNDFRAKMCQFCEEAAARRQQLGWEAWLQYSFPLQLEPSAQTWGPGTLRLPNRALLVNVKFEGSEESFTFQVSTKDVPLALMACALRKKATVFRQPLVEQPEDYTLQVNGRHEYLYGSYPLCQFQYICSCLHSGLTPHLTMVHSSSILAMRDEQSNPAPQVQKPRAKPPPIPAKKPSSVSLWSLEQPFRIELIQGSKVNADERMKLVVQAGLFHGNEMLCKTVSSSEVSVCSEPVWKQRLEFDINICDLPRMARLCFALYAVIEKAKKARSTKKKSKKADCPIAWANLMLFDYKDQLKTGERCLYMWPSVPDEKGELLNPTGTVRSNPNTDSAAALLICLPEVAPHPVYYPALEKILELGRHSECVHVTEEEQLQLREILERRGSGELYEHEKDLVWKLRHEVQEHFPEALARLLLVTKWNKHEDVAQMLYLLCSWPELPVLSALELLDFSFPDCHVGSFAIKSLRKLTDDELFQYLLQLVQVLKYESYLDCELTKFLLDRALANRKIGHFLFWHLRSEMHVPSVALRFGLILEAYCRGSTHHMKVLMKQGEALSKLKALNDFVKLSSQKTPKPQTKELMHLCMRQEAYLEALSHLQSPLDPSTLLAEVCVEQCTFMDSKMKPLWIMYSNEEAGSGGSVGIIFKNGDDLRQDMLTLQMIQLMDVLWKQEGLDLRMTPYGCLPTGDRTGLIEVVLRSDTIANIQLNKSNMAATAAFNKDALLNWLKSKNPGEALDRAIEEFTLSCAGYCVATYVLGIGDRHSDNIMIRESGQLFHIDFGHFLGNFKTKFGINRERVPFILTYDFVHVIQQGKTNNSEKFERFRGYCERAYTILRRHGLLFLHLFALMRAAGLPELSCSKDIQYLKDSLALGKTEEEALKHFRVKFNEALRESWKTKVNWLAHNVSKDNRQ

Substance: GS-649443 [Compound B]
- IC50: 0.28 nM
